Values joined by “and” are separate entries in the source; they are usually repeats but may differ in a detail not shown here. Equal values may be shown once. Inconclusive results and toxic doses are left out. Peptide text beside a SMILES is read from it.

Experimental findings from PubChem BioAssay AID330 (DTP/NCI, 2004) are described below.

This assay concerns P388 leukemia ip, CD2F1 mice, survival T/C. The experiment in a line: NCI In Vivo Anticancer Drug Screen. Data for tumor model P388 Leukemia (intraperitoneal) in CD2F1 (CDF1) mice. Conditions: endpoint: median survival time, higher = longer survival. An outline of the steps: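 Mice carrying the transplanted tumor received test compound or vehicle. Survival was recorded in each group, and the value is the treated-group measurement divided by that of the vehicle-treated control group.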

Setting [1] is: dose: 50.0 mg/kg/injection, schedule: Q01DX009 (ip), vehicle: saline with Tween-80.
Where [2] appears, read: dose: 100.0 mg/kg/injection, schedule: Q01DX009 (ip), vehicle: saline with Tween-80.
Setting [3] is: dose: 200.0 mg/kg/injection, schedule: Q01DX009 (ip), vehicle: saline with Tween-80.
The mark [4] stands for this setting: dose: 50.0 mg/kg/injection, schedule: Q01DX005 (ip), vehicle: saline with Tween-80.
Setting [5] is: dose: 100.0 mg/kg/injection, schedule: Q01DX005 (ip), vehicle: saline with Tween-80.
[6] abbreviates: dose: 200.0 mg/kg/injection, schedule: Q01DX005 (ip), vehicle: saline with Tween-80.

`CCCCC(CC)(CCC)CCN` (centres undefined): the T/C runs as follows: (dose: 6.25 mg/kg/injection, schedule: Q01DX009 (ip), vehicle: suspension in saline) 104 % of control; (dose: 12.5 mg/kg/injection, schedule: Q01DX009 (ip), vehicle: suspension in saline) 107 % of control; (dose: 25.0 mg/kg/injection, schedule: Q01DX009 (ip), vehicle: suspension in saline) 102 % of control.

`O=c1c2c([nH]c3c1ccc1[nH]c4c(c(=O)c13)CCCC4)CCCC2`: the T/C is, setting by setting: under setting [1], 90 % of control; under setting [2], 91 % of control; under setting [3], 97 % of control.

Regarding `CN(C)CCCNC1C(C2COC(C)(C)O2)OC2OC(C)(C)OC21` (centres undefined), the T/C was 97 % of control (dose: 100.0 mg/kg/injection, schedule: Q04DX002 (ip), vehicle: saline); 95 % of control (dose: 200.0 mg/kg/injection, schedule: Q04DX002 (ip), vehicle: saline); 93 % of control (dose: 400.0 mg/kg/injection, schedule: Q04DX002 (ip), vehicle: saline).

Take `COc1cc2c(c(OC)c1O)-c1ccc(OC)c(=O)cc1[C@@H](NC(=O)C(F)(F)F)CC2`: the T/C by setting is: (dose: 2.5 mg/kg/injection, schedule: Q01DX009 (ip), vehicle: Klucel (hydroxypropylcellulose) (HPC)) 157 % of control; (dose: 5.0 mg/kg/injection, schedule: Q01DX005 (ip), vehicle: Klucel (hydroxypropylcellulose) (HPC)) 155 % of control; (dose: 5.0 mg/kg/injection, schedule: Q01DX009 (ip), vehicle: Klucel (hydroxypropylcellulose) (HPC)) 159 % of control and 163 % of control; (dose: 10.0 mg/kg/injection, schedule: Q01DX005 (ip), vehicle: Klucel (hydroxypropylcellulose) (HPC)) 155 % of control; (dose: 10.0 mg/kg/injection, schedule: Q01DX009 (ip), vehicle: Klucel (hydroxypropylcellulose) (HPC)) 182 % of control.

Take `CC1(C)CCC(C)(C)NC(=S)N1`: the T/C reads like this: (dose: 3.13 mg/kg/injection, schedule: Q01DX009 (ip), vehicle: saline with Tween-80) 96 % of control; (dose: 6.25 mg/kg/injection, schedule: Q01DX009 (ip), vehicle: saline with Tween-80) 105 % of control; (dose: 12.5 mg/kg/injection, schedule: Q01DX009 (ip), vehicle: saline with Tween-80) 96 % of control.

`COCC1(O)C=CC(=O)O1` (centres undefined): the T/C (dose: 50.0 mg/kg/injection, schedule: Q01DX005 (ip), vehicle: saline) is 105 % of control.

Regarding `O=C(O)/C=C\C(=O)NCCCCCC(=O)O`, the T/C by setting is: (dose: 50.0 mg/kg/injection, schedule: Q01DX009 (ip), vehicle: Klucel (hydroxypropylcellulose) (HPC)) 102 % of control; (dose: 100.0 mg/kg/injection, schedule: Q01DX009 (ip), vehicle: Klucel (hydroxypropylcellulose) (HPC)) 103 % of control; (dose: 200.0 mg/kg/injection, schedule: Q01DX009 (ip), vehicle: Klucel (hydroxypropylcellulose) (HPC)) 105 % of control.

As for `O=C(O)C1C(CCl)=C1CCl`, the T/C reads like this: (dose: 60.0 mg/kg/injection, schedule: Q01DX005 (ip), vehicle: Klucel (hydroxypropylcellulose) (HPC)) 100 % of control; (dose: 120.0 mg/kg/injection, schedule: Q01DX005 (ip), vehicle: Klucel (hydroxypropylcellulose) (HPC)) 104 % of control.

Take `O=C(NC(Cc1ccccc1)C(=O)NC(Cc1c[nH]c2ccccc12)C(=O)O)OCc1ccccc1` (centres undefined): the T/C reads like this: under setting [4], 90 % of control; under setting [5], 98 % of control; under setting [6], 91 % of control.

As for `COC1=CC(=O)C(C2(OC(C)C)OC(=O)C(Cl)=C2Cl)=CC1=O` (centres undefined), the T/C is 119 % of control under setting [4] and 111 % of control under setting [5].

Take `O=C(O)C1=CO[C@@H](OC2OC(CO)C(O)C(O)C2O)[C@H]2[C@@H]1C=C[C@]2(O)CO` (some centres undefined): the T/C by setting is: (dose: 4.68 mg/kg/injection, schedule: Q01DX009 (ip), vehicle: Klucel (hydroxypropylcellulose) (HPC)) 101 % of control; (dose: 9.37 mg/kg/injection, schedule: Q01DX009 (ip), vehicle: Klucel (hydroxypropylcellulose) (HPC)) 97 % of control; (dose: 18.75 mg/kg/injection, schedule: Q01DX009 (ip), vehicle: Klucel (hydroxypropylcellulose) (HPC)) 97 % of control; (dose: 37.5 mg/kg/injection, schedule: Q01DX009 (ip), vehicle: Klucel (hydroxypropylcellulose) (HPC)) 94 % of control; (dose: 75.0 mg/kg/injection, schedule: Q01DX009 (ip), vehicle: Klucel (hydroxypropylcellulose) (HPC)) 98 % of control and 90 % of control; (dose: 150.0 mg/kg/injection, schedule: Q01DX009 (ip), vehicle: Klucel (hydroxypropylcellulose) (HPC)) 97 % of control.

As to `Clc1ccc2c(c1)C1CN(C2)Cc2ccc(Cl)cc21`, the T/C is, setting by setting: (dose: 100.0 mg/kg/injection, schedule: Q01DX001 (ip), vehicle: saline with Tween-80) 101 % of control; (dose: 200.0 mg/kg/injection, schedule: Q01DX001 (ip), vehicle: saline with Tween-80) 87 % of control; (dose: 400.0 mg/kg/injection, schedule: Q01DX001 (ip), vehicle: saline with Tween-80) 93 % of control.

For `CS(=O)(=O)OCCCCCCCCCCCC1C=CCC1` (centres undefined), the T/C was 94 % of control (dose: 100.0 mg/kg/injection, schedule: Q04DX003 (ip), vehicle: saline); 93 % of control (dose: 200.0 mg/kg/injection, schedule: Q04DX003 (ip), vehicle: saline); 94 % of control (dose: 400.0 mg/kg/injection, schedule: Q04DX003 (ip), vehicle: saline).

Turning to `Cc1ccc([Se](=C(C(=O)c2ccccc2)C(=O)c2ccccc2)c2ccc(C)cc2)cc1`, the T/C was 104 % of control (dose: 50.0 mg/kg/injection, schedule: Q01DX009 (ip), vehicle: saline); 100 % of control (dose: 100.0 mg/kg/injection, schedule: Q01DX009 (ip), vehicle: saline); 104 % of control (dose: 200.0 mg/kg/injection, schedule: Q01DX009 (ip), vehicle: saline).

Take `O=c1c(-c2ccc(O)cc2)coc2c(C3OC(CO)C(O)C(O)C3O)c(O)ccc12` (centres undefined): the T/C under setting [4] is 104 % of control, the T/C under setting [5] is 101 % of control and the T/C under setting [6] is 93 % of control.

Consider `CC(C)C(NC(=O)C(NC(=O)C(CCCN=C(N)N)NC(=O)C(N)CCCCN)C(C)C)C(N)=O` (centres undefined) (H-KRVV-NH2; configuration not given here), for which the T/C runs as follows: (dose: 12.5 mg/kg/injection, schedule: Q01DX009 (ip), vehicle: water) 114 % of control; (dose: 25.0 mg/kg/injection, schedule: Q01DX009 (ip), vehicle: water) 104 % of control; (dose: 50.0 mg/kg/injection, schedule: Q01DX009 (ip), vehicle: water) 110 % of control; (dose: 100.0 mg/kg/injection, schedule: Q01DX009 (ip), vehicle: water) 104 % of control; (dose: 200.0 mg/kg/injection, schedule: Q01DX009 (ip), vehicle: water) 99 % of control.

For the compound `NC(=S)c1cccc(/C=N/n2cnnc2)c1`, the T/C is 97 % of control (dose: 100.0 mg/kg/injection, schedule: Q04DX003 (ip), vehicle: Klucel (hydroxypropylcellulose) (HPC)); 93 % of control (dose: 200.0 mg/kg/injection, schedule: Q04DX003 (ip), vehicle: Klucel (hydroxypropylcellulose) (HPC)); 90 % of control (dose: 400.0 mg/kg/injection, schedule: Q04DX003 (ip), vehicle: Klucel (hydroxypropylcellulose) (HPC)).

On to `COc1ccc2c(=O)c(-c3ccc(OC)c(OC)c3OCc3ccccc3)coc2c1`, for which the T/C runs as follows: (dose: 100.0 mg/kg/injection, schedule: Q01DX001 (ip), vehicle: Klucel (hydroxypropylcellulose) (HPC)) 92 % of control; (dose: 200.0 mg/kg/injection, schedule: Q01DX001 (ip), vehicle: Klucel (hydroxypropylcellulose) (HPC)) 96 % of control; (dose: 400.0 mg/kg/injection, schedule: Q01DX001 (ip), vehicle: Klucel (hydroxypropylcellulose) (HPC)) 94 % of control.

For the compound `CC1CCC2=C(C1)c1ccc(O)cc1OC2(C)C` (centres undefined), the T/C by setting is: (dose: 50.0 mg/kg/injection, schedule: Q01DX005 (ip), vehicle: Klucel (hydroxypropylcellulose) (HPC)) 100 % of control; (dose: 100.0 mg/kg/injection, schedule: Q01DX005 (ip), vehicle: Klucel (hydroxypropylcellulose) (HPC)) 96 % of control; (dose: 200.0 mg/kg/injection, schedule: Q01DX005 (ip), vehicle: Klucel (hydroxypropylcellulose) (HPC)) 93 % of control.

As for `CCOC(=O)C1CC1C1=C(C)c2cc3[n-]c(cc4nc(cc5[n-]c(cc1n2)c(C)c5CCC(=O)OC)C(CCC(=O)OC)=C4C)c(C)c3C1CC1C(=O)OCC.[Zn+2]` (centres undefined), the T/C was 95 % of control under setting [4], 89 % of control under setting [5] and 89 % of control under setting [6].

Regarding `O=C(Cn1ccc(=O)[nH]c1=O)N1CCOCC1`, the T/C (dose: 100.0 mg/kg/injection, schedule: Q04DX003 (ip), vehicle: water) was 100 % of control; the T/C (dose: 200.0 mg/kg/injection, schedule: Q04DX003 (ip), vehicle: water) was 100 % of control; the T/C (dose: 400.0 mg/kg/injection, schedule: Q04DX003 (ip), vehicle: water) is 100 % of control.

On to `O=C(OCC1CC=CCC1CCl)c1ccccc1` (centres undefined), for which the T/C under setting [1] was 96 % of control, the T/C under setting [2] is 99 % of control and the T/C under setting [3] is 99 % of control.
